Laboratory results reported in patent US9796733B2, “Imidazo-pyrazine derivatives useful as soluble guanylate cyclase activators” (Merck Sharp & Dohme Corp., priority 2014, dated 2017).

Experiments:
sGC α1/β1 heterodimer = target: T1, sGC α1/β1 heterodimer (Homo sapiens, UniProt Q02108+Q02153); assay: Cell-based sGC functional assay (CASA assay): cGMP generation in CHO-K1/sGC cells, HTRF detection; settings: for Emax: CHO-K1, percent activation relative to standard Compound A in CHO-K1/sGC cells, read-out: % Act.; for EC50: inflection point (IP) of cGMP generation in CHO-K1/sGC cells, 4P fit, activity expressed as percentage of Compound A
T1 construct: expressed in transfected cells; host or cells: CHO-K1 (clone #7, CHO-K1/sGC)
T1 sequence (Q02108 1-690): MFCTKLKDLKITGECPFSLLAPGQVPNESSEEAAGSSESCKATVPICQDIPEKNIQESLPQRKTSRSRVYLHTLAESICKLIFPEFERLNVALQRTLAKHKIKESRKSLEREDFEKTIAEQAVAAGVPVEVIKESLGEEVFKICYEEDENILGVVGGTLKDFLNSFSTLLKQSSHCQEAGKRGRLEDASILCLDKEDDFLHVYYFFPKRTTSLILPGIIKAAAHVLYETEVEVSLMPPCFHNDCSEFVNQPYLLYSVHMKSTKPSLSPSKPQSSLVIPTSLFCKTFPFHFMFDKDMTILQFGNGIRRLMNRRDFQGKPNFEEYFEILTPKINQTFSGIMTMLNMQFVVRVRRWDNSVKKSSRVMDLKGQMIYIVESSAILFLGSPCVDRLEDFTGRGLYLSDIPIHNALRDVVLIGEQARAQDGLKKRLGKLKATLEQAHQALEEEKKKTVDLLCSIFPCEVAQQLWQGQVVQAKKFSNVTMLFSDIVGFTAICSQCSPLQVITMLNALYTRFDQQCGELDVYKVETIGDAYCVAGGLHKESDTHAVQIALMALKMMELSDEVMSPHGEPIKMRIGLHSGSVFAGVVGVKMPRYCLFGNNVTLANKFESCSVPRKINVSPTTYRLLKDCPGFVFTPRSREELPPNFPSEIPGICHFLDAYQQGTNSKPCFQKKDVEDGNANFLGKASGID
T1 sequence (Q02153 1-619): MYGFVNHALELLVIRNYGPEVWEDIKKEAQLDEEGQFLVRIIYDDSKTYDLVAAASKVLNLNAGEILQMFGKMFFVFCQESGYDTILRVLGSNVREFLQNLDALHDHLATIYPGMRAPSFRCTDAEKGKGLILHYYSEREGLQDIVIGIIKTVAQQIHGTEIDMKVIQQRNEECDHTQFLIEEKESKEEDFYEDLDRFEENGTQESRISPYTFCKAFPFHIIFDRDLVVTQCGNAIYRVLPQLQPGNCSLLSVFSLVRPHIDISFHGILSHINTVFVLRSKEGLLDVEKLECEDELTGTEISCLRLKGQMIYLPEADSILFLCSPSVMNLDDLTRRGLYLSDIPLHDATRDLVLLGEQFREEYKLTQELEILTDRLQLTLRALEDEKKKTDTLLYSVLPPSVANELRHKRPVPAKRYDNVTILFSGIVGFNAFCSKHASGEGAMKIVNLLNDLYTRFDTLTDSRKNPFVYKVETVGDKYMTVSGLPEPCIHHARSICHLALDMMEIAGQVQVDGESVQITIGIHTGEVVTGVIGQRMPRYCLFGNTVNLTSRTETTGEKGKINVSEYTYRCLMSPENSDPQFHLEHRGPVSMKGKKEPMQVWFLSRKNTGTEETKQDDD
Method in brief: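 Stable CHO-K1/sGC cells in EBSS buffer with 5 mM MgCl2, 0.05% BSA and 0.5 mM IBMX were incubated with compound (2.5% DMSO final) ±1 μM DETA-NO for 1 hr at 37° C. cGMP was measured by HTRF. Activation is expressed as % of reference HDA Compound A maximum, with IP and max fold induction from a 4P fit.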

[1] = system: Spontaneously hypertensive rats (SHR); assay: Acute efficacy in spontaneously hypertensive rats (SHR): telemetry blood pressure lowering after a single oral dose; format: in vivo, rat
Method in brief: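 Male SHR carrying aortic telemetry implants (14-day recovery) received a single oral gavage of compound or vehicle (10% transcutol/20% Cremophor/70% water). Conscious blood pressure was sampled 30 s every 10 min and averaged hourly; change was taken against the prior-day vehicle baseline, reported as maximum peak SBP decrease at a given PO dose (mpk).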

CC1(c2ccc(F)c(F)c2)C(=O)Nc2nc(-c3cn4ccnc4c(CCC(F)(F)F)n3)nc(N)c21 (stereo not drawn) [Example 183B, 4-amino-5-(3,4-difluorophenyl)-5-methyl-2-(8-(3,3,3-trifluoropropyl)imidazo[1,2-a]pyrazin-6-yl)-5H-pyrrolo[2,3-d]pyrimidin-6(7H)-one]
Emax (sGC α1/β1 heterodimer): 113% | EC50 (sGC α1/β1 heterodimer): 0.061 µM | Maximum peak decrease of systolic blood pressure (SBP) in SHR, Cat. ([1]; P.O. 1.0 mpk): B (Category B=SBP in SHRs 20-40 mmHg)

Cc1nnc(C2(C)C(=O)Nc3nc(-c4cn5ccnc5c(Cc5ccc(F)cc5)n4)nc(N)c32)o1 (single isomer, unassigned) [Example 29A, 4-Amino-2-(8-(4-fluorobenzyl)imidazo[1,2-a]pyrazin-6-yl)-5-methyl-5-(5-methyl-1,3,4-oxadiazol-2-yl)-5H-pyrrolo[2,3-d]pyrimidin-6(7H)-one]
Emax (sGC α1/β1 heterodimer): 102% | EC50 (sGC α1/β1 heterodimer): 0.299 µM | Maximum peak decrease of systolic blood pressure (SBP) in SHR, Cat. ([1]; P.O. 3.0 mpk): B (Category B=SBP in SHRs 20-40 mmHg)

Nc1nc(-c2cn3ccnc3c(CCC(F)(F)F)n2)nc2c1C(c1ccc(Cl)cc1F)(C1CC1)C(=O)N2 (stereo not drawn) [Example 338A, 4-amino-5-(4-chloro-2-fluorophenyl)-5-cyclopropyl-2-(8-(3,3,3-trifluoropropyl)imidazo[1,2-a]pyrazin-6-yl)-5H-pyrrolo[2,3-d]pyrimidin-6(7H)-one]
Emax (sGC α1/β1 heterodimer): 158% | EC50 (sGC α1/β1 heterodimer): 0.178 µM | Maximum peak decrease of systolic blood pressure (SBP) in SHR, Cat. ([1]; P.O. 2.0 mpk): B (Category B=SBP in SHRs 20-40 mmHg)

CC1(c2ccc(Br)cc2)C(=O)Nc2nc(-c3cn4ccnc4c(CCC(F)(F)F)n3)nc(N)c21 (stereo not drawn) [Example 181A, 4-amino-5-(4-bromophenyl)-5-methyl-2-(8-(3,3,3-trifluoropropyl)imidazo[1,2-a]pyrazin-6-yl)-5H-pyrrolo[2,3-d]pyrimidin-6(7H)-one]
Emax (sGC α1/β1 heterodimer): 132% | EC50 (sGC α1/β1 heterodimer): 0.056 µM | Maximum peak decrease of systolic blood pressure (SBP) in SHR, Cat. ([1]; P.O. 1.0 mpk): B (Category B=SBP in SHRs 20-40 mmHg)

CC(C)Cc1nc(-c2nc(N)c3c(n2)NC(=O)C3(c2ccc(F)c(F)c2)C2CC2)cn2ccnc12 (stereo not drawn) [Example 335A, 4-amino-5-cyclopropyl-5-(3,4-difluorophenyl)-2-(8-isobutylimidazo[1,2-a]pyrazin-6-yl)-5H-pyrrolo[2,3-d]pyrimidin-6(7H)-one]
Emax (sGC α1/β1 heterodimer): 140% | EC50 (sGC α1/β1 heterodimer): 0.303 µM | Maximum peak decrease of systolic blood pressure (SBP) in SHR, Cat. ([1]; P.O. 3.0 mpk): B (Category B=SBP in SHRs 20-40 mmHg)

CC1(c2ccc(Cl)cc2)C(=O)Nc2nc(-c3cn4ccnc4c(CCC(F)(F)F)n3)nc(N)c21 (stereo not drawn) [Example 182A, 4-amino-5-(4-chlorophenyl)-5-methyl-2-(8-(3,3,3-trifluoropropyl)imidazo[1,2-a]pyrazin-6-yl)-5H-pyrrolo[2,3-d]pyrimidin-6(7H)-one]
Emax (sGC α1/β1 heterodimer): 120% | EC50 (sGC α1/β1 heterodimer): 0.055 µM | Maximum peak decrease of systolic blood pressure (SBP) in SHR, Cat. ([1]; P.O. 1.0 mpk): B (Category B=SBP in SHRs 20-40 mmHg)

Cc1cnc2c(CCC(F)(F)C(F)(F)F)nc(-c3nc(N)c4c(n3)NC(=O)C4(C)c3ccc(F)cn3)cn12 (stereo not drawn) [Example 173B, 4-amino-5-(5-fluoropyridin-2-yl)-5-methyl-2-(3-methyl-8-(3,3,4,4,4-pentafluorobutyl)imidazo [1,2-a]pyrazin-6-yl)-5H-pyrrolo[2,3-d]pyrimidin-6(7H)-one]
Emax (sGC α1/β1 heterodimer): 92% | EC50 (sGC α1/β1 heterodimer): 0.156 µM | Maximum peak decrease of systolic blood pressure (SBP) in SHR, Cat. ([1]; P.O. 1.0 mpk): B (Category B=SBP in SHRs 20-40 mmHg)

CCCc1nc(-c2nc(N)c3c(n2)NC(=O)C3(C)c2ccc(C(F)(F)F)cn2)cn2ccnc12 (stereo not drawn) [Example 132B, 4-amino-5-methyl-2-(8-propylimidazo[1,2-a]pyrazin-6-yl)-5-(5-(trifluoromethyl)pyridin-2-yl)-5H-pyrrolo[2,3-d]pyrimidin-6(7H)-one]
Emax (sGC α1/β1 heterodimer): 99% | EC50 (sGC α1/β1 heterodimer): 0.949 µM | Maximum peak decrease of systolic blood pressure (SBP) in SHR, Cat. ([1]; P.O. 3.0 mpk): B (Category B=SBP in SHRs 20-40 mmHg)

Nc1nc(-c2cn3ccnc3c(CCC(F)(F)C(F)(F)F)n2)nc2c1C(c1ccc(F)cc1)(C1CCC1)C(=O)N2 (single isomer, unassigned) [Example 344B, 4-amino-5-cyclobutyl-5-(4-fluorophenyl)-2-(8-(3,3,4,4,4-pentafluorobutyl)imidazo[1,2-a]pyrazin-6-yl)-5H-pyrrolo[2,3-d]pyrimidin-6(7H)-one]
Emax (sGC α1/β1 heterodimer): 163% | EC50 (sGC α1/β1 heterodimer): 0.051 µM | Maximum peak decrease of systolic blood pressure (SBP) in SHR, Cat. ([1]; P.O. 0.3 mpk): A (Category A=SBP in SHRs<20 mmHg)

Nc1nc(-c2cn3ccnc3c(CCCC(F)(F)F)n2)nc2c1C(c1cncc(F)c1)(C1CC1)C(=O)N2 (stereo not drawn) [Example 356B, 4-amino-5-cyclopropyl-5-(5-fluoropyridin-3-yl)-2-(8-(4,4,4-trifluorobutyl)imidazo[1,2-a]pyrazin-6-yl)-5H-pyrrolo[2,3-d]pyrimidin-6(7H)-one]
Emax (sGC α1/β1 heterodimer): 108% | EC50 (sGC α1/β1 heterodimer): 0.487 µM | Maximum peak decrease of systolic blood pressure (SBP) in SHR, Cat. ([1]; P.O. 3.0 mpk): A (Category A=SBP in SHRs<20 mmHg)

CC1(c2ccc(F)cc2)C(=O)Nc2nc(-c3cn4ccnc4c(CCC(F)(F)F)n3)nc(N)c21 (stereo not drawn) [Example 184A, 4-amino-5-(4-fluorophenyl)-5-methyl-2-(8-(3,3,3-trifluoropropyl)imidazo[1,2-a]pyrazin-6-yl)-5H-pyrrolo[2,3-d]pyrimidin-6(7H)-one]
Emax (sGC α1/β1 heterodimer): 134% | EC50 (sGC α1/β1 heterodimer): 0.176 µM | Maximum peak decrease of systolic blood pressure (SBP) in SHR, Cat. ([1]; P.O. 1.0 mpk): B (Category B=SBP in SHRs 20-40 mmHg)

CCCc1nc(-c2nc(N)c3c(n2)NC(=O)C3(c2ccc(Cl)cc2F)C2CC2)cn2ccnc12 (stereo not drawn) [Example 360A, 4-amino-5-(4-chloro-2-fluorophenyl)-5-cyclopropyl-2-(8-propylimidazo[1,2-a]pyrazin-6-yl)-5H-pyrrolo[2,3-d]pyrimidin-6(7H)-one]
Emax (sGC α1/β1 heterodimer): 129% | EC50 (sGC α1/β1 heterodimer): 0.043 µM | Maximum peak decrease of systolic blood pressure (SBP) in SHR, Cat. ([1]; P.O. 3.0 mpk): B (Category B=SBP in SHRs 20-40 mmHg)

CCCCc1nc(-c2nc(N)c3c(n2)NC(=O)C3(c2ccc(Cl)cc2)C2CC2)cn2ccnc12 (stereo not drawn) [Example 332B, 4-amino-2-(8-butylimidazo[1,2-a]pyrazin-6-yl)-5-(4-chlorophenyl)-5-cyclopropyl-5H-pyrrolo[2,3-d]pyrimidin-6(7H)-one]
Emax (sGC α1/β1 heterodimer): 141% | EC50 (sGC α1/β1 heterodimer): 0.03 µM | Maximum peak decrease of systolic blood pressure (SBP) in SHR, Cat. ([1]; P.O. 0.3 mpk): B (Category B=SBP in SHRs 20-40 mmHg)

Cc1cnc2c(CCC(F)(F)C(F)(F)F)nc(-c3nc(N)c4c(n3)NC(=O)C4(C)c3ccc(F)cc3)cn12 (stereo not drawn) [Example 171A, 4-amino-5-(4-fluorophenyl)-5-methyl-2-(3-methyl-8-(3,3,4,4,4-pentafluorobutyl)imidazo [1,2-a]pyrazin-6-yl)-5H-pyrrolo[2,3-d]pyrimidin-6(7H)-one]
Emax (sGC α1/β1 heterodimer): 126% | EC50 (sGC α1/β1 heterodimer): 0.08 µM | Maximum peak decrease of systolic blood pressure (SBP) in SHR, Cat. ([1]; P.O. 1.0 mpk): B (Category B=SBP in SHRs 20-40 mmHg)

CCCCc1nc(-c2nc(N)c3c(n2)NC(=O)C3(C)c2ccc(F)cc2)cn2ccnc12 (stereo not drawn) [Example 8A, 4-amino-2-(8-butylimidazo[1,2-a]pyrazin-6-yl)-5-(4-fluorophenyl)-5-methyl-5H-pyrrolo[2,3-d]pyrimidin-6(7H)-one]
Emax (sGC α1/β1 heterodimer): 137% | EC50 (sGC α1/β1 heterodimer): 0.045 µM | Maximum peak decrease of systolic blood pressure (SBP) in SHR, Cat. ([1]; P.O. 0.3 mpk): C (Category C=SBP in SHRs>40 mmHg)

CC1(c2ccc(F)cc2F)C(=O)Nc2nc(-c3cn4ccnc4cn3)nc(N)c21 (stereo not drawn) [Example 139A, 4-amino-5-(2,4-difluorophenyl)-2-(imidazo[1,2-a]pyrazin-6-yl)-5-methyl-5H-pyrrolo[2,3-d]pyrimidin-6(7H)-one]
Emax (sGC α1/β1 heterodimer): 118% | EC50 (sGC α1/β1 heterodimer): 0.222 µM | Maximum peak decrease of systolic blood pressure (SBP) in SHR, Cat. ([1]; P.O. 3.0 mpk): C (Category C=SBP in SHRs>40 mmHg)
